{"source": "patent US20100233256A1", "about": "“SYNERGISTIC COMBINATIONS FOR TREATING HYPERTENSION” (LYCORED LTD., priority 2007, published 2010)", "tested_on": "adhesion of neutrophils to EA.hy 926 endothelial cell line", "test": "Adhesion of neutrophils to TNFα-induced EA.hy 926 endothelial cells", "type": "cell-based", "conditions": "for reduction of adhesion of neutrophils to cytokine-induced endothelial cell line: EAhy. 926; for inhibition of the adhesion: lower concentration, percent of the adhesion induced by TNFα", "method": "The applicants of the present invention have shown that lycopene, lutein and 7% Lye-O-Mato® can improve endothelial function by reducing, to similar extent (60±15%), the adhesion of neutrophils to cytokine-induced endothelial cell line (EAhy. 926). […] Lycopene 610 and oleoresin were diluted by 1:12 fold and lutein by 1:8 fold which result in ˜0.2 μM lycopene 610, ˜0.125 μM oleoresin and ˜0.6 μM lutein. The adhesion of neutrophils to EA.hy 926 cells were measured after the endothelial cells were induced by TNFα which result in increase of 60±10% in the adhesion from their combination, was calculated as percent of the adhesion induced by TNFα", "data": [{"smiles": "CC(C)=CCC/C(C)=C/C=C/C(C)=C/C=C/C(C)=C/C=C/C=C(C)/C=C/C=C(C)/C=C/C=C(\\C)CCC=C(C)C", "note": "[lycopene]", "values": [{"measurement": "reduction of adhesion of neutrophils to cytokine-induced endothelial cell line", "setting": "high concentration: lycopene 610 2-3 μM", "result": "60±15", "unit": "%"}, {"measurement": "inhibition of the adhesion", "setting": "~0.2 μM lycopene 610, FIG. 1B", "result": "40±22", "unit": "%"}]}, {"smiles": "CC1=C[C@H](O)CC(C)(C)[C@H]1/C=C/C(C)=C/C=C/C(C)=C/C=C/C=C(C)/C=C/C=C(C)/C=C/C1=C(C)C[C@@H](O)CC1(C)C", "note": "[lutein]", "values": [{"measurement": "reduction of adhesion of neutrophils to cytokine-induced endothelial cell line", "setting": "high concentration: lutein 4-5 μM", "result": "60±15", "unit": "%"}, {"measurement": "inhibition of the adhesion", "setting": "~0.6 μM lutein, FIG. 1A", "result": "56±15", "unit": "%"}]}]}
